The values below come from patent publication US11180483B2, “Substituted reverse pyrimidine Bmi-1 inhibitors” (PTC Therapeutics, Inc., priority 2012, dated 2021).

Broadly, the EC50 is the concentration that produces a half-maximal response. High values mean a less potent agent, low ones a more potent agent.

Molecules are shown by their SMILES.

This experiment deals with Bmi-1. The experiment in a line: Sandwich ELISA Assay (Bmi-1 ELISA) in HT-1080 cells. It counts as cell-based. The protocol: Cell Seeding and Compound Treatment (Day 1):
HT-1080 cells were seeded at 8000 cells/well (50 μL) in 96-well tissue culture plates. After the cells became adherent (3-4 hours), 2× diluted stocks of test compounds in 50 μL DMEM containing 1% DMSO (final DMSO concentration was 0.5%) were added and the plates were incubated at 37° C. under 5% CO2 for 40-48 hours.
ELISA Plate First Antibody Preparation (Day 2):
The First Antibody (Millipore Mouse, monoclonal to mouse Bmi-1, clone F6, catalog #05-637) diluted to 2 μg/mL in PBS was added (100 μL) to each well of a Nunc MaxiSorp 96-well ELISA plate. The plate was covered with a plate seal and allowed to stand overnight.
Cell Lysate Preparation (Day 3):
Fresh 1× Lysis buffer was prepared on the day of the assay as follows: 1 mM EDTA, 150 mM NaCl, 0.5% Triton-X 100, 10 mM NaF, 20 mM B-Glycerophosphate, 1 mM DTT (in PBS, pH 7.2-7.4) and 1× HALT protease inhibitor cocktail (Pierce #78410).
The 1× Lysis Buffer (40 μL) was added to each well and the plate was shaken for 5-10 minutes on an orbital shaker to allow cell lysis, then diluent (1% BSA in PBS in 0.5% NP40) (100 μL) was added to each well.
A standard curve was prepared at the following Bmi-1 concentrations: 8000, 4000, 2000, 1000, 500, 250, 125, 0 pg/mL The Bmi-1 Recombinant Protein Standard (Novus Biologicals PCGF4 Recombinant Protein (P01), catalog #H00000648-P01) used to prepare the standard curve was stored at −80° C. On first thaw, the Bmi-1 Recombinant Protein Standard was diluted to […] in Blocking Buffer (1% BSA in PBS; BSA: Fisher Scientific Catalog #1600-100). Aliquots were taken and refrozen at −80° C. The aliquots may be kept at 4° C. and reused after first thaw, but only within 1-2 weeks. The Bmi-1 Recombinant Protein Standard contains a GST-fusion tag that appears around 70 Kda on Western Blot.
The prepared ELISA plate was washed 3× with Wash Buffer (0.05% Tween-20 in PBS). The final wash was removed from the plate and the plate was blotted dry. Blocking Buffer (300 μL) (1% BSA in PBS) was added to each well. The plate was covered with a plate seal and incubated at room temperature for 1 hour. The blocked plate was washed 3× with Wash Buffer, then the final wash was removed and the plate was blotted dry. The previously prepared samples and standards were added (100 μL/well) and the plate was covered with a plate seal and incubated at 4° C. overnight.
The prepared ELISA plate was removed from 4° C., incubated at room temperature for 30 minutes, then washed and blotted dry as previously described for Day 3. The Second Antibody (Cell Signaling Rabbit anti-Bmi-1, Cat #2830) diluted to 1:600 in Blocking Buffer was added (100 μL) to each well, except as needed for background control wells. The plate was covered with a plate seal and incubated for 1.5 hrs at room temperature.
The ELISA plate was washed and blotted dry as previously described. The Third Antibody (Cell Signaling HRP conjugated anti-rabbit IgG (CellSignaling, Cat #:7074) diluted to 1:300 in Blocking Buffer was added (100 μL) to each well, except as needed for background control wells. The plate was incubated for 1 hr at room temperature.
The plate was washed and blotted dry as previously described, then prepared TMB substrate (TMB substrate kit, Pierce catalog #34021) (prepared by mixing kit reagents 1:1) (100 μL) was added per well. The plate was incubated for 20-30 minutes at room temperature in the dark, then Stop Solution (2 M sulfuric acid in water) (50 μL) was added per well. The plates were read at OD450 (experimental) and OD570 (reference).
(In general: ELISA stands for enzyme-linked immunosorbent assay.)
`Cc1nc2ccc(N)cc2n1-c1nc(N)c(F)c(Nc2ccc(C(F)(F)F)cc2)n1` [Cpd 284, 2-(6-amino-2-methyl-1H-benzimidazol-1-yl)-5-fluoro-N-[4-(trifluoromethyl)phenyl]pyrimidine-4,6-diamine] had an EC50 of 10 to 100 nM.

Turning to `Cc1nc2ncc(Cl)cc2n1-c1nc(N)c(F)c(Nc2ccc(OC(F)F)cc2)n1` [Cpd 115, 2-(6-chloro-2-methyl-1H-imidazo[4,5-b]pyridin-1-yl)-N-[4-(difluoromethoxy)phenyl]-5-fluoropyrimidine-4,6-diamine], the EC50 fell in the range of 10 to 100 nM.

For the molecule `FC(F)(F)c1nc2ccccn2c1-c1nccc(Nc2ccc(Br)cc2)n1` [Cpd 10, N-(4-bromophenyl)-2-[2-(trifluoromethyl)imidazo[1,2-a]pyridin-3-yl]pyrimidin-4-amine], the EC50 lay in the range of 10 to 100 nM.

The molecule `FC(F)(F)c1ccc(Nc2ccnc(-c3cnc4ccccn34)n2)cc1` [Cpd 118, 2-(imidazo[1,2-a]pyridin-3-yl)-N-[4-(trifluoromethyl)phenyl]pyrimidin-4-amine] yielded a concentration for a half-maximal effect (EC50) of 100 to 3000 nM.

`CCc1nc2cc(F)ccc2n1-c1nc(N)c(F)c(Nc2ccc(C(F)(F)F)cc2)n1` [Cpd 162, 2-(2-ethyl-5-fluoro-1H-benzimidazol-1-yl)-5-fluoro-N-[4-(trifluoromethyl)phenyl]pyrimidine-4,6-diamine] had a concentration for a half-maximal effect (EC50) of 10 to 100 nM.

`Cc1nc2ccccc2n1-c1nc(N)cc(Nc2ccc(N(C)C)cc2)n1` [Cpd 198, N-[4-(dimethylamino)phenyl]-2-(2-methyl-1H-benzimidazol-1-yl)pyrimidine-4,6-diamine] registered a 50% effective concentration (EC50) of 1 to 10 nM.

On to `FC(F)(F)c1ccc(Nc2ccnc(-c3c(C(F)(F)F)nc4cnccn34)n2)cc1` [Cpd 46, 2-[2-(trifluoromethyl)imidazo[1,2-a]pyrazin-3-yl]-N-[4-(trifluoromethyl)phenyl]pyrimidin-4-amine], for which the EC50 was in the range of 100 to 3000 nM.

With `Cc1nc2ccccc2n1-c1nc(N)c(F)c(Nc2ccc3c(c2)OCO3)n1` [Cpd 203, N-(1,3-benzodioxol-5-yl)-5-fluoro-2-(2-methyl-1H-benzimidazol-1-yl)pyrimidine-4,6-diamine], the EC50 is 1 to 10 nM.

With `Cc1nc2ccc(Cl)cc2n1-c1nc(N)cc(Nc2ccc(C(F)(F)F)c(F)c2)n1` [Cpd 96, 2-(6-chloro-2-methyl-1H-benzimidazol-1-yl)-N-[3-fluoro-4-(trifluoromethyl)phenyl]pyrimidine-4,6-diamine], the EC50 was in the range of 100 to 3000 nM.

With `COc1ccc(Nc2ccnc(-n3c(C)nc4ccccc43)n2)cc1Cl` [Cpd 40, N-(3-chloro-4-methoxyphenyl)-2-(2-methyl-1H-benzimidazol-1-yl)pyrimidin-4-amine], the half-maximal effective concentration (EC50) lay within 100 to 3000 nM.

Take `COc1ccc2nc(C(F)(F)F)c(-c3nccc(Nc4ccc(OC(F)F)cc4)n3)n2c1` [Cpd 51, N-[4-(difluoromethoxy)phenyl]-2-[6-methoxy-2-(trifluoromethyl)imidazo[1,2-a]pyridin-3-yl]pyrimidin-4-amine]: the EC50 was in the range of 100 to 3000 nM.

For the molecule `COCc1nc2ccccc2n1-c1nc(N)c(F)c(Nc2ccc(OC(F)F)cc2)n1` [Cpd 216, N-[4-(difluoromethoxy)phenyl]-5-fluoro-2-[2-(methoxymethyl)-1H-benzimidazol-1-yl]pyrimidine-4,6-diamine], the half-maximal effective concentration (EC50) is 10 to 100 nM.

As for `Cc1nc2ccc([N+](=O)[O-])cc2n1-c1nc(N)c(F)c(Nc2ccc(OC(F)F)cc2)n1` [Cpd 231, N-[4-(difluoromethoxy)phenyl]-5-fluoro-2-(2-methyl-6-nitro-1H-benzimidazol-1-yl)pyrimidine-4,6-diamine], the half-maximal effective concentration (EC50) is 100 to 3000 nM.

Turning to `Cc1nc2ccc(F)cc2n1-c1nc(N)cc(Nc2ccc(C(F)(F)F)cc2)n1` [Cpd 71, 2-(6-fluoro-2-methyl-1H-benzimidazol-1-yl)-N-[4-(trifluoromethyl)phenyl]pyrimidine-4,6-diamine], the half-maximal effective concentration (EC50) fell in the range of 10 to 100 nM.

As to `COc1ccc2nc(C)n(-c3nc(N)c(F)c(Nc4ccc(OC(F)(F)F)cc4)n3)c2c1` [Cpd 246, 5-fluoro-2-(6-methoxy-2-methyl-1H-benzimidazol-1-yl)-N-[4-(trifluoromethoxy)phenyl]pyrimidine-4,6-diamine], the concentration giving a half-maximal response (EC50) is 10 to 100 nM.

On to `Cn1c(C(F)(F)F)c(-c2nccc(Nc3ccc(Br)cc3)n2)c2cc(Cl)ccc21` [Cpd 25, N-(4-bromophenyl)-2-[5-chloro-1-methyl-2-(trifluoromethyl)-1H-indol-3-yl]pyrimidin-4-amine], for which the EC50 fell in the range of 100 to 3000 nM.

On to `COc1cccc(Nc2nc(-n3c(C)nc4ccccc43)nc(N)c2F)c1` [Cpd 195, 5-fluoro-N-(3-methoxyphenyl)-2-(2-methyl-1H-benzimidazol-1-yl)pyrimidine-4,6-diamine], for which the concentration giving a half-maximal response (EC50) was 100 to 3000 nM.

Regarding `Cc1ccc(Nc2nc(-n3c(C)nc4ccc([N+](=O)[O-])cc43)nc(N)c2F)cc1` [Cpd 232, 5-fluoro-2-(2-methyl-6-nitro-1H-benzimidazol-1-yl)-N-(4-methylphenyl)pyrimidine-4,6-diamine], the EC50 is 10 to 100 nM.

Molecule `Nc1cc(Nc2ccc(C(F)(F)F)cc2)nc(-n2c(C3CC3)nc3ncc(F)cc32)n1` [Cpd 92, 2-(2-cyclopropyl-6-fluoro-1H-imidazo[4,5-b]pyridin-1-yl)-N-[4-(trifluoromethyl)phenyl]pyrimidine-4,6-diamine] yielded a half-maximal effective concentration (EC50) of 10 to 100 nM.

`Cc1ccc(Nc2nc(-n3c(C)nc4ccc(N)cc43)nc(N)c2F)cc1` [Cpd 258, 2-(6-amino-2-methyl-1H-benzimidazol-1-yl)-5-fluoro-N-(4-methylphenyl)pyrimidine-4,6-diamine] registered a concentration for a half-maximal effect (EC50) of 1 to 10 nM.

In turn, `COc1ccc(Nc2nc(-n3c(C)nc4ccc(C#N)cc43)nc(N)c2F)cc1` [Cpd 225, 1-{4-amino-5-fluoro-6-[(4-methoxyphenyl)amino]pyrimidin-2-yl}-2-methyl-1H-benzimidazole-6-carbonitrile] had an EC50 of 10 to 100 nM.

`Cc1ccc(Nc2nc(-n3c(C)nc4cc(C#N)ccc43)nc(N)c2F)cc1` [Cpd 227, 1-{4-amino-5-fluoro-6-[(4-methylphenyl)amino]pyrimidin-2-yl}-2-methyl-1H-benzimidazole-5-carbonitrile] came in with an EC50 of 10 to 100 nM.

On to `Cc1nc2c(F)cc(F)cc2n1-c1nc(N)c(F)c(Nc2ccc(Cl)cc2)n1` [Cpd 237, N-(4-chlorophenyl)-2-(4,6-difluoro-2-methyl-1H-benzimidazol-1-yl)-5-fluoropyrimidine-4,6-diamine], for which the EC50 fell in the range of 10 to 100 nM.

For `Cc1nc2cc(F)c(F)cc2n1-c1nc(N)cc(Nc2ccc(OC(F)F)c(F)c2)n1` [Cpd 101, N-[4-(difluoromethoxy)-3-fluorophenyl]-2-(5,6-difluoro-2-methyl-1H-benzimidazol-1-yl)pyrimidine-4,6-diamine], the concentration giving a half-maximal response (EC50) is 10 to 100 nM.

The molecule `Nc1nc(-n2c(C3CC3)nc3c(F)cccc32)nc(Nc2ccc(OC(F)F)c(F)c2)c1F` [Cpd 142, 2-(2-cyclopropyl-4-fluoro-1H-benzimidazol-1-yl)-N-[4-(difluoromethoxy)-3-fluorophenyl]-5-fluoropyrimidine-4,6-diamine] returned a 50% effective concentration (EC50) of 10 to 100 nM.

In turn, `Cc1nc2ncccc2n1-c1nc(N)c(F)c(Nc2ccc(OC(F)F)c(F)c2)n1` [Cpd 139, N-[4-(difluoromethoxy)-3-fluorophenyl]-5-fluoro-2-(2-methyl-1H-imidazo[4,5-b]pyridin-1-yl)pyrimidine-4,6-diamine] came in with a 50% effective concentration (EC50) of 100 to 3000 nM.

With `Cc1nc2cc(Cl)ccc2n1-c1nc(N)cc(Nc2ccc(C(F)(F)F)c(F)c2)n1` [Cpd 98, 2-(5-chloro-2-methyl-1H-benzimidazol-1-yl)-N-[3-fluoro-4-(trifluoromethyl)phenyl]pyrimidine-4,6-diamine], the concentration for a half-maximal effect (EC50) is 100 to 3000 nM.
